Calls of active or inactive are those of the source. No cut-off for these calls is given here.
How the values were obtained:
[1] = target: T1, Nitric oxide synthase, inducible (Mus musculus) (UniProt P29477); test: Inhibition of iNOS-mediated nitric oxide production in LPS-stimulated mouse RAW 264.7 cells treated 2 hrs before LPS challenge measured after 18 hrs by Griess reaction method relative to control; type: cell-based; design: concentration or dose not given beside the values; conditions: concentration not given here
T1 sequence (whole entry): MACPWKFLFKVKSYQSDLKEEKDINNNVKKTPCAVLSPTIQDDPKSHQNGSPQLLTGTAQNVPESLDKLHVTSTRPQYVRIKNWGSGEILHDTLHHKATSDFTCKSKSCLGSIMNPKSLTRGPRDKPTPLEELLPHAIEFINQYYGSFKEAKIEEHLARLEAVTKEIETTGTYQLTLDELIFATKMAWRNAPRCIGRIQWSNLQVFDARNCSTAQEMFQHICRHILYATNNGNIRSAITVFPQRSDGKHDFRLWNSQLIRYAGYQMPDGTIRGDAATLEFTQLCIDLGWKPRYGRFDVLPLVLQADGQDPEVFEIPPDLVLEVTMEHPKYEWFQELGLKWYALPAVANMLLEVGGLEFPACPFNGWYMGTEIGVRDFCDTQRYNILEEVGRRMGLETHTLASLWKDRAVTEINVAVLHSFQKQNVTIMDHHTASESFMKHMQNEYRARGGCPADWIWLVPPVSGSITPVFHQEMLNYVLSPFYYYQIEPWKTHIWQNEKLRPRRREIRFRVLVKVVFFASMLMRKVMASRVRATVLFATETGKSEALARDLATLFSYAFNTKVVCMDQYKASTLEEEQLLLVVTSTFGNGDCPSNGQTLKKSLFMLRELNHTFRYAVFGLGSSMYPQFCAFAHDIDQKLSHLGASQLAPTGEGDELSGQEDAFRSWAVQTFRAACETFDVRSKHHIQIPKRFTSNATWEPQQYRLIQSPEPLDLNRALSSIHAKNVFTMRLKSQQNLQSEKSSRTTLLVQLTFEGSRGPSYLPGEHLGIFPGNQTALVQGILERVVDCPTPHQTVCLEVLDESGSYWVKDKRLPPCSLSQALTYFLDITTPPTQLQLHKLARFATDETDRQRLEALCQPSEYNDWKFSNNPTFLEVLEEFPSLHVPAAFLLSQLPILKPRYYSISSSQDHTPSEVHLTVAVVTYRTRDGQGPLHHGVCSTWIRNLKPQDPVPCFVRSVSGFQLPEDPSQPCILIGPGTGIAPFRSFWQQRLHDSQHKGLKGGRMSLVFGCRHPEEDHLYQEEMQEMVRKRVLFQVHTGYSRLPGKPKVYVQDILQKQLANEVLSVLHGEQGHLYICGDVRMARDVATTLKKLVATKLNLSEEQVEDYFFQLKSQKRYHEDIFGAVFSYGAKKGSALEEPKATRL

RAW264.7 [2] = test: Cytotoxicity against LPS-stimulated mouse RAW264.7 cells after 24 hrs by MTT assay; type: cell-based; conditions: RAW264.7, 24 h
[3] = target: T2, Nitric oxide synthase, inducible (Mus musculus, UniProt P29477)
T2 sequence (P29477 whole entry): T1 sequence (whole entry)

[4] = target: T3, Prostaglandin G/H synthase 2 (Mus musculus, UniProt Q05769); test: Inhibition of COX2-mediated PGE2 production in LPS-stimulated mouse RAW 264.7 cells after 24 hrs by ELISA; type: cell-based
T3 sequence (Q05769 whole entry): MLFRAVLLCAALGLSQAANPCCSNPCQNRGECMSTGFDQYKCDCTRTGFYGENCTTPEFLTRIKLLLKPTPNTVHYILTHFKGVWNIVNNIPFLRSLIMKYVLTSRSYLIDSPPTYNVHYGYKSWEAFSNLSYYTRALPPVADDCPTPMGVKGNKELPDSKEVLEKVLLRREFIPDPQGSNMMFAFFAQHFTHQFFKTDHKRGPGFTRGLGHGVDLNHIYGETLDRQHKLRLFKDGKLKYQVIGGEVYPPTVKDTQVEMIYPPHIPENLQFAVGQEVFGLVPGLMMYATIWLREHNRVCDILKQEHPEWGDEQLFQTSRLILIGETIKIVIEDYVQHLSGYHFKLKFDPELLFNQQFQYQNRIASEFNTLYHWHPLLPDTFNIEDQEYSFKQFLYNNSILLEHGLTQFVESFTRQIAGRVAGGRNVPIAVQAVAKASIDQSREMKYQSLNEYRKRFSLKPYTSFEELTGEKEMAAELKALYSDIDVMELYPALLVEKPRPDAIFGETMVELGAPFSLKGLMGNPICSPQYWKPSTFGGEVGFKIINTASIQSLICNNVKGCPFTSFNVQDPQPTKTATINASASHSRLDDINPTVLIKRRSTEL

[5] = target: T2, Nitric oxide synthase, inducible; remark: listed apart in the source
Description: Inhibition of iNOS in LPS-stimulated mouse RAW 264.7 cells after 2 hrs by fluorescence plate reader analysis

RAW264.7 [6] = test: cells; conditions: Mus musculus, RAW264.7, 24 h
Description: Cytotoxicity against mouse RAW264.7 cells after 24 hrs by MTT assay

Rattus norvegicus [7] = test: Antiarthritic activity in heat-killed mycobacterium tuberculosis-induced Lewis rat arthritis model assessed as decrease in arthritic score at 50 mg/kg, po QD for 28; type: functional, organism-based; design: dose 50 mg/kg
Mus musculus [8] = species on record: Mus musculus; conditions: ICR, 10 mg/kg
Description: Antiinflammatory activity against acetic acid-induced vascular permeability in ICR mouse assessed as evans blue peritoneal leakage at 10 mg/kg, ip administered 30 mins before acetic acid challenge measured after 50 mins

Mus musculus [9] = test: Antiinflammatory activity in ICR mouse assessed as inhibition of carrageenan-induced paw edema at 50 mg/kg, po administered 30 mins before carrageenan challenge measured up to 5 hrs; type: functional
RAW264.7 [10] = test: Inhibition of LPS-induced iNOS protein expression in mouse RAW264.7 cells treated 2 hrs before LPS challenge measured after 18 hrs by Western blotting; type: functional, cell-based
[11] = Cmax in Sprague-Dawley rat at 10 mg/kg, iv; type: ADME, organism-based; design: dose 10 mg/kg, route intravenous; conditions: in vivo
[12] = Tmax in Sprague-Dawley rat at 10 mg/kg, iv; type: ADME, organism-based; design: dose 10 mg/kg, route intravenous; conditions: in vivo
Rattus norvegicus [13] = test: AUC (0 to t) in Sprague-Dawley rat at 50 mg/kg, po; type: ADME, organism-based, Plasma; design: dose 50 mg/kg, route oral; conditions: in vivo
Rattus norvegicus [14] = test: Antiarthritic activity in heat-killed mycobacterium tuberculosis-induced Lewis rat arthritis model assessed as leukocytes infiltreated into synovial tissue and synovial fluid of joints at 50 mg/kg, po QD for 28 using hematoxylin and eosin staining by microscopic analysis; type: functional, organism-based; design: dose 50 mg/kg
[15] = Half life in Sprague-Dawley rat at 50 mg/kg, po; type: ADME, organism-based; design: dose 50 mg/kg, route oral; conditions: in vivo
[16] = Half life in Sprague-Dawley rat at 10 mg/kg, iv; type: ADME, organism-based; design: dose 10 mg/kg, route intravenous; conditions: in vivo
RAW264.7 [17] = test: Inhibition of LPS-induced COX2 protein expression in mouse RAW264.7 cells at 12 to 24 uM treated 2 hrs before LPS challenge measured after 18 hrs by Western blotting; type: functional, cell-based
Mus musculus [18] = test: Antiinflammatory activity against acetic acid-induced vascular permeability in ICR mouse assessed as evans blue peritoneal leakage at 10 to 50 mg/kg, ip administered 30 mins before acetic acid challenge measured after 50 mins; type: functional, organism-based
[19] = Tmax in Sprague-Dawley rat at 50 mg/kg, po; type: ADME, organism-based; design: dose 50 mg/kg, route oral; conditions: in vivo
Mus musculus [20] = test: Antiinflammatory activity in ICR mouse assessed as inhibition of carrageenan-induced paw edema at 10 mg/kg, po administered 30 mins before carrageenan challenge measured up to 5 hrs; type: functional
[21] = Oral bioavailability in Sprague-Dawley rat at 50 mg/kg; type: ADME, organism-based; conditions: in vivo
Rattus norvegicus [22] = test: Antiarthritic activity in heat-killed mycobacterium tuberculosis-induced Lewis rat arthritis model assessed as increase in boy weight at 50 mg/kg, po QD for 28 relative to control; type: functional
[23] = Cmax in Sprague-Dawley rat at 50 mg/kg, po; type: ADME, organism-based; design: dose 50 mg/kg, route oral; conditions: in vivo
Rattus norvegicus [24] = test: AUC (0 to t) in Sprague-Dawley rat at 10 mg/kg, iv; type: ADME, organism-based, Plasma; design: dose 10 mg/kg, route intravenous; conditions: in vivo

O=C(COc1ccc(/C=C2\SC(=O)NC2=O)cc1)Nc1ccccn1
inhibition [1]: 14.6%

O=C(COc1ccc(/C=C2\SC(=O)NC2=O)cc1)Nc1ccccc1
inhibition [1]: 55.3%

O=C(COc1ccc(/C=C2\SC(=O)NC2=O)cc1)Nc1ccc(F)c(F)c1
IC50 (RAW264.7 [2]): > 100 µM | IC50 [3]: 13.9 µM | IC50 [4]: 7.12 µM | IC50 [5]: 34.1 µM | IC50 (RAW264.7 [6]): > 100 µM | inhibition [1]: 83.9%

O=C(COc1ccc(/C=C2\SC(=O)NC2=O)cc1)Nc1cc(Cl)cc(Cl)c1
IC50 (RAW264.7 [2]): > 100 µM | IC50 [3]: 26.1 µM | IC50 [4]: 14.8 µM | IC50 [5]: 57.4 µM | IC50 (RAW264.7 [6]): > 100 µM | inhibition [1]: 72%

Cc1ccc(NC(=O)COc2ccc(/C=C3\SC(=O)NC3=O)cc2)cc1
inhibition [1]: 38.4%

O=C(COc1ccc(/C=C2\SC(=O)NC2=O)cc1)NCc1ccccc1
inhibition [1]: 41.6%

COc1ccc2c(c1)c(CC(=O)O)c(C)n2C(=O)c1ccc(Cl)cc1 [INDOMETHACIN]
IC50 (RAW264.7 [2]): > 100 µM | Activity (Rattus norvegicus [7]): Active | inhibition (Mus musculus [8]): Active | IC50 (RAW264.7 [6]): > 100 µM | inhibition [1]: 63.2%

O=C(COc1ccc(/C=C2\SC(=O)NC2=O)cc1)Nc1cccc(Cl)c1
inhibition in vivo at 50 mg/kg (Mus musculus [9]): 36.2% | IC50 (RAW264.7 [2]): > 100 µM | inhibition (RAW264.7 [10]): Dose-dependent effect | Cmax [11]: 27 µM | Tmax [12]: 4.8 min | AUC (Rattus norvegicus [13]): 10 uM.hr/L | IC50 [3]: 8.66 µM | Activity (Rattus norvegicus [14]): Active | half-life [15]: 130 min | IC50 [4]: 4.16 µM | IC50 [5]: 23.6 µM | half-life [16]: 16.8 min | inhibition (RAW264.7 [17]): Active | inhibition (Mus musculus [18]): inactive | Tmax [19]: 10.8 min | IC50 (RAW264.7 [6]): > 100 µM | inhibition [1]: 80.9% | inhibition (Mus musculus [20]): Active | inhibition in vivo at 10 mg/kg (Mus musculus [20]): 33.3% | bioavailability [21]: 18.1% | Activity (Rattus norvegicus [22]): 15.1% | Cmax [23]: 15.3 µM | AUC (Rattus norvegicus [24]): 11.05 uM.hr/L

O=C(COc1ccc(/C=C2\SC(=O)NC2=O)cc1)Nc1ccc(Cl)cc1Cl
inhibition [1]: 10%

COc1ccc(NC(=O)COc2ccc(/C=C3\SC(=O)NC3=O)cc2)cc1OC
inhibition [1]: 16.2%

CN(C(=O)COc1ccc(/C=C2\SC(=O)NC2=O)cc1)c1ccccc1
inhibition [1]: 51%

CC(=O)c1ccc(NC(=O)COc2ccc(/C=C3\SC(=O)NC3=O)cc2)cc1
inhibition [1]: 10.2%

O=C(COc1ccc(/C=C2\SC(=O)NC2=O)cc1)Nc1ccc(F)c(Cl)c1
inhibition [1]: 36%

O=C(COc1ccc(/C=C2\SC(=O)NC2=O)cc1)Nc1ccc(C(F)(F)F)cc1
inhibition [1]: 26.6%

O=C(COc1ccc(/C=C2\SC(=O)NC2=O)cc1)Nc1ccc2ccccc2c1
inhibition [1]: 45.1%

O=C(COc1ccc(/C=C2\SC(=O)NC2=O)cc1)Nc1ccc(F)cc1
inhibition [1]: 57.9%

Cc1ccc(NC(=O)COc2ccc(/C=C3\SC(=O)NC3=O)cc2)nc1
inhibition [1]: 12.5%

O=C(COc1ccc(/C=C2\SC(=O)NC2=O)cc1)Nc1cccc2ccccc12
IC50 (RAW264.7 [2]): 55 µM | IC50 [3]: 20.9 µM | IC50 [4]: 16.1 µM | IC50 [5]: 40 µM | IC50 (RAW264.7 [6]): 62.3 µM | inhibition [1]: 70.9%

COc1ccc(NC(=O)COc2ccc(/C=C3\SC(=O)NC3=O)cc2)cc1
inhibition [1]: 0.6%

O=C(COc1ccc(/C=C2\SC(=O)NC2=O)cc1)NC1CCCCC1
inhibition [1]: 47.8%

O=C(COc1ccc(/C=C2\SC(=O)NC2=O)cc1)Nc1ccc(Cl)cc1
inhibition [1]: 9.7%

O=C(COc1ccc(/C=C2\SC(=O)NC2=O)cc1)Nc1ccc(Br)cc1
inhibition [1]: 23.7%

O=C(COc1ccc(/C=C2\SC(=O)NC2=O)cc1)Nc1cccc(F)c1
inhibition [1]: 41.5%

Source: ChEMBL document CHEMBL1765006, “Synthesis and biological evaluation of novel 5-benzylidenethiazolidine-2,4-dione derivatives for the treatment of inflammatory diseases” (J Med Chem, 2011)
